According to PMC11882969 (Nature Communications, 2025):
Values joined by “and” are separate entries in the source; they are usually repeats but may differ in a detail not shown here. Equal entries are not always repeated. Where two headings read alike, the source gives them in different places. Marks after values point to notes of the source that are not given here.

Legend:
CB1 (rCB1) [1] = target: T1, CB1 (rCB1) (Rattus norvegicus, UniProt P20272); assay: Radioligand competition binding, [3H]-CP-55,940, rat brain membranes
hCB1 [2] = target: T2, hCB1 (Homo sapiens, UniProt P21554); assay: bioSensAll ebBRET signaling profiling, hCB1; type: cell-based; design: host or cells: HEK293SL cells, transient PEI transfection; conditions: for Barr2+GRK2 hCB1 response: Barr2+GRK2 biosensor; for Gi1 hCB1 / GoB hCB1: single replicate values, FigS6a; for Emax: normalized to CP-55,940
hCB1 [3] = target: T2, hCB1; assay: Lance Ultra cAMP accumulation assay, CHO cells; type: cell-based; design: expressed in transfected cells; conditions: for cAMP assay signal, concentration-response point: replicates, sheet FigureS2a;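 on all read-outs here: human CB1R stably expressed in CHO cells, ligands co-incubated with forskolin at room temperature, read-out is lowering of forskolin-stimulated cAMP accumulation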
Description: The inhibition of forskolin-stimulated cAMP accumulation assays was carried out using PerkinElmer’s Lance Ultra cAMP kit following the manufacturer’s protocol. In brief, CHO cells stably expressing human CB1R (provided by the lab of Laura Bohn) were harvested by incubation with Versene (ThermoFisher Scientific, Waltham, MA) for 10 min, washed once with Hank’s Balanced Salt Solution, and resuspended in stimulation buffer at ~200 cells/μL density. The ligands at eight different concentrations (0.001-10,000 nM) in stimulation buffer (5 μL) containing forskolin (2 μM final concentration) were added to a 384-well plate followed by the cell suspension (5 μL; ~1000 cells/well). The plate was incubated for 30 min at room temperature. Eu-cAMP tracer (5 μL) and Ulight-anti-cAMP (5 μL) working solutions were then added to each well, and the plate was incubated at room temperature for an additional 60 min. Results were measured on a Perkin-Elmer EnVision plate reader. The EC50 values were determined by nonlinear regression analysis using Graphpad Prism 9 and are expressed as the mean of three experiments, each performed in triplicate.

CB1 (rCB1) [4] = target: T1, CB1 (rCB1); assay: Single-point radioligand displacement screen; type: binding

T1 sequence (P20272 whole entry): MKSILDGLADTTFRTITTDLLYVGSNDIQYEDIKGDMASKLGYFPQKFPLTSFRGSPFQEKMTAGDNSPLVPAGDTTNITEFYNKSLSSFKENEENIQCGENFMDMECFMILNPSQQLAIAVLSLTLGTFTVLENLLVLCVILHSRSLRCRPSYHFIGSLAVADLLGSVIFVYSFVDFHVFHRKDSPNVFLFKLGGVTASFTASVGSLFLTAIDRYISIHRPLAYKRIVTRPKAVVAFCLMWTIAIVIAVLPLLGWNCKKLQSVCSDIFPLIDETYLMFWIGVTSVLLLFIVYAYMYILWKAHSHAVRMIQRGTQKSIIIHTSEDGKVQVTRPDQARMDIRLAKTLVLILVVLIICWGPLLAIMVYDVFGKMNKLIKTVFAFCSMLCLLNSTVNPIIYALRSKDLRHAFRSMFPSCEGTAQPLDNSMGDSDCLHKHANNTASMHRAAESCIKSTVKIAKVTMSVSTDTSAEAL
T2 sequence (P21554 whole entry): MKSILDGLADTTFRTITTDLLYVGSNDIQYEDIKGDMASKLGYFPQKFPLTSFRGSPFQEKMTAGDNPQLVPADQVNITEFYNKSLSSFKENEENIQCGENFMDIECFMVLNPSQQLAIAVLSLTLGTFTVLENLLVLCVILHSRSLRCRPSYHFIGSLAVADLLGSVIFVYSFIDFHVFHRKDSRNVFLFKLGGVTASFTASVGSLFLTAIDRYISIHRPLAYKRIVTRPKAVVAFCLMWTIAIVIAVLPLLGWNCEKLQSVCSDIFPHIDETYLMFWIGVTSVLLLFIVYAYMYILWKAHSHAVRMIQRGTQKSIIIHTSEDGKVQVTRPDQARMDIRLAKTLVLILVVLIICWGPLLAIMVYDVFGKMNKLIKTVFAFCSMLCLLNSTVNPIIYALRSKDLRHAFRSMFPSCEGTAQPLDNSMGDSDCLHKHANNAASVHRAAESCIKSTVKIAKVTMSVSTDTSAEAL

SMILES: Cn1nc(-c2nnc(C(C)(C)Oc3ccc(Cl)cc3)o2)c2ccccc2c1=O [‘0450]
- radioligand binding remaining, competition curve (Figure2e), replicate values (CB1 (rCB1) [1]; log[drug] -3.643): 3.776 and 13.0342 and 10.5924
- radioligand binding remaining, competition curve (Figure2e), replicate values (CB1 (rCB1) [1]; log[drug] -4.35655): -5.187 and 0.4808 and -3.246
- radioligand binding remaining, competition curve (Figure2e), replicate values (CB1 (rCB1) [1]; log[drug] -5.07): 1.22 and 4.986 and -3.564
- radioligand binding remaining, competition curve (Figure2e), replicate values (CB1 (rCB1) [1]; log[drug] -5.783): 44.8894 and 48.8782 and 38.7216
- radioligand binding remaining, competition curve (Figure2e), replicate values (CB1 (rCB1) [1]; log[drug] -6.496): 82.7231 and 84.8647 and 75.4685
- radioligand binding remaining, competition curve (Figure2e), replicate values (CB1 (rCB1) [1]; log[drug] -7.21): 103.471 and 87.6068 and 85.0402
- radioligand binding remaining, competition curve (Figure2e), replicate values (CB1 (rCB1) [1]; log[drug] -7.923): 98.6842 and 84.2236 and 81.6265
- radioligand binding remaining, competition curve (Figure2e), replicate values (CB1 (rCB1) [1]; log[drug] -8.636): 102.059 and 98.0413 and 100.669
- pKi [95% CI] (CB1 (rCB1) [1]; rCB1): 6.16 [5.99 – 6.34]
- Barr2+GRK2 hCB1 response (hCB1 [2]; Log [Compound] (M) -4.22186): 27.1048
- Barr2+GRK2 hCB1 response (hCB1 [2]; Log [Compound] (M) -4.63927): -24.5851
- Barr2+GRK2 hCB1 response (hCB1 [2]; Log [Compound] (M) -5.05788): -35.4335
- Barr2+GRK2 hCB1 response (hCB1 [2]; Log [Compound] (M) -5.47381): -53.9398
- Barr2+GRK2 hCB1 response (hCB1 [2]; Log [Compound] (M) -5.89285): -49.1537
- Barr2+GRK2 hCB1 response (hCB1 [2]; Log [Compound] (M) -6.31878): -46.282
- Barr2+GRK2 hCB1 response (hCB1 [2]; Log [Compound] (M) -6.72585): -46.9202
- Barr2+GRK2 hCB1 response (hCB1 [2]; Log [Compound] (M) -7.14267): -54.5779
- Barr2+GRK2 hCB1 response (hCB1 [2]; Log [Compound] (M) -7.55284): -56.4924
- Barr2+GRK2 hCB1 response (hCB1 [2]; Log [Compound] (M) -8): -48.8346
- Barr2+GRK2 hCB1 response (hCB1 [2]; Log [Compound] (M) -8.22186): -5.441
- Barr2+GRK2 hCB1 response (hCB1 [2]; Log [Compound] (M) -8.39794): -31.2856
- Barr2+GRK2 hCB1 response (hCB1 [2]; Log [Compound] (M) -8.68787): -55.2161
- Barr2+GRK2 hCB1 response (hCB1 [2]; Log [Compound] (M) -9.15521): -35.1145
- Barr2+GRK2 hCB1 response (hCB1 [2]; Log [Compound] (M) -9.61989): -47.5583
- Barr2+GRK2 hCB1 response (hCB1 [2]; Log [Compound] (M) -10.0969): -52.0253
- Barr2+GRK2 hCB1 response (hCB1 [2]; Log [Compound] (M) -10.5529): -34.4763
- Barr2+GRK2 hCB1 response (hCB1 [2]; Log [Compound] (M) -11.0177): -42.1341
- Barr2+GRK2 hCB1 response (hCB1 [2]; Log [Compound] (M) -11.4949): -48.5155
- Barr2+GRK2 hCB1 response (hCB1 [2]; Log [Compound] (M) -11.9208): -49.1537
- Barr2+GRK2 hCB1 response (hCB1 [2]; Log [Compound] (M) -12.3979): -55.5351
- Barr2+GRK2 hCB1 response (hCB1 [2]; Log [Compound] (M) -12.8861): -37.0289
- Barr2+GRK2 hCB1 response (hCB1 [2]; Log [Compound] (M) -13.3979): -10.8649
- Gi1 hCB1 (hCB1 [2]; Log [Compound] (M) -4.22186): 20.433
- GoB hCB1 (hCB1 [2]; Log [Compound] (M) -4.22186): 28.3973
- Gi1 hCB1 (hCB1 [2]; Log [Compound] (M) -4.63927): 13.3222
- GoB hCB1 (hCB1 [2]; Log [Compound] (M) -4.63927): 13.6053
- Gi1 hCB1 (hCB1 [2]; Log [Compound] (M) -5.05788): 9.41
- GoB hCB1 (hCB1 [2]; Log [Compound] (M) -5.05788): 19.1089
- Gi1 hCB1 (hCB1 [2]; Log [Compound] (M) -5.47381): 7.763
- GoB hCB1 (hCB1 [2]; Log [Compound] (M) -5.47381): 13.8657
- Gi1 hCB1 (hCB1 [2]; Log [Compound] (M) -5.89285): 5.34
- GoB hCB1 (hCB1 [2]; Log [Compound] (M) -5.89285): 8.258
- Gi1 hCB1 (hCB1 [2]; Log [Compound] (M) -6.31878): 2.791
- GoB hCB1 (hCB1 [2]; Log [Compound] (M) -6.31878): 3.397
- Gi1 hCB1 (hCB1 [2]; Log [Compound] (M) -6.72585): -1.469
- GoB hCB1 (hCB1 [2]; Log [Compound] (M) -6.72585): -0.5617
- Gi1 hCB1 (hCB1 [2]; Log [Compound] (M) -7.14267): -3.893
- GoB hCB1 (hCB1 [2]; Log [Compound] (M) -7.14267): -2.489
- Gi1 hCB1 (hCB1 [2]; Log [Compound] (M) -7.55284): -6.6323
- GoB hCB1 (hCB1 [2]; Log [Compound] (M) -7.55284): -6.586
- Gi1 hCB1 (hCB1 [2]; Log [Compound] (M) -8): -3.861
- GoB hCB1 (hCB1 [2]; Log [Compound] (M) -8): -8.513
- Gi1 hCB1 (hCB1 [2]; Log [Compound] (M) -8.22186): 0.6527
- GoB hCB1 (hCB1 [2]; Log [Compound] (M) -8.22186): -4.433
- Gi1 hCB1 (hCB1 [2]; Log [Compound] (M) -8.39794): -6.221
- GoB hCB1 (hCB1 [2]; Log [Compound] (M) -8.39794): -7.35
- Gi1 hCB1 (hCB1 [2]; Log [Compound] (M) -8.68787): -4.3993
- GoB hCB1 (hCB1 [2]; Log [Compound] (M) -8.68787): -5.892
- Gi1 hCB1 (hCB1 [2]; Log [Compound] (M) -9.15521): -5.159
- GoB hCB1 (hCB1 [2]; Log [Compound] (M) -9.15521): -7.419
- Gi1 hCB1 (hCB1 [2]; Log [Compound] (M) -9.61989): -4.621
- GoB hCB1 (hCB1 [2]; Log [Compound] (M) -9.61989): -5.371
- Gi1 hCB1 (hCB1 [2]; Log [Compound] (M) -10.0969): -6.442
- GoB hCB1 (hCB1 [2]; Log [Compound] (M) -10.0969): -8.097
- GoB hCB1 (hCB1 [2]; Log [Compound] (M) -10.5529): -7.003
- Gi1 hCB1 (hCB1 [2]; Log [Compound] (M) -11.0177): -5.524
- GoB hCB1 (hCB1 [2]; Log [Compound] (M) -11.0177): -9.104
- Gi1 hCB1 (hCB1 [2]; Log [Compound] (M) -11.4949): -5.872
- GoB hCB1 (hCB1 [2]; Log [Compound] (M) -11.4949): -8.479
- Gi1 hCB1 (hCB1 [2]; Log [Compound] (M) -11.9208): -6.363
- GoB hCB1 (hCB1 [2]; Log [Compound] (M) -11.9208): -7.454
- Gi1 hCB1 (hCB1 [2]; Log [Compound] (M) -12.3979): -5.935
- GoB hCB1 (hCB1 [2]; Log [Compound] (M) -12.3979): -8.392
- Gi1 hCB1 (hCB1 [2]; Log [Compound] (M) -12.8861): -4.653
- GoB hCB1 (hCB1 [2]; Log [Compound] (M) -12.8861): -8.739
- Gi1 hCB1 (hCB1 [2]; Log [Compound] (M) -13): -5.191
- GoB hCB1 (hCB1 [2]; Log [Compound] (M) -13): -7.871
- Gi1 hCB1 (hCB1 [2]; Log [Compound] (M) cell empty): -4.795
- GoB hCB1 (hCB1 [2]; Log [Compound] (M) cell empty): -4.173
- pEC50 [95% CI] (hCB1 [2]; hCB1 GoB): 5.6 [3.0 – 6.2]
- Emax (hCB1 [2]; read-out: Emax [95% CI], hCB1 Gi1): 49%
- Emax (hCB1 [2]; read-out: Emax [95% CI], hCB1 GoB): 36%
- cAMP assay signal, concentration-response point (hCB1 [3]; compound 0.01 nM): 0.002801 and 0.002457 and 0.003311
- cAMP assay signal, concentration-response point (hCB1 [3]; compound 0.1 nM): 0.004608* and 0.002375 and 0.002849
- cAMP assay signal, concentration-response point (hCB1 [3]; compound 1 nM): 0.002336 and 0.002132 and 0.002532
- cAMP assay signal, concentration-response point (hCB1 [3]; compound 10 nM): 0.002645 and 0.002538 and 0.002288
- cAMP assay signal, concentration-response point (hCB1 [3]; compound 100 nM): 0.002008 and 0.002532 and 0.002421
- cAMP assay signal, concentration-response point (hCB1 [3]; compound 1000 nM): 0.002545 and 0.002096 and 0.002506
- cAMP assay signal, concentration-response point (hCB1 [3]; compound 10000 nM): 0.001462 and 0.001302 and 0.001515
- cAMP assay signal, concentration-response point (hCB1 [3]; compound 100000 nM): 0.0002057* and 0.0001994* and 0.0002162*
- agonism, inhibition of forskolin-stimulated cAMP (hCB1 [3]; hCB1-expressing cells, in words): modest agonism
- % 1H-CP-55,940 displacement (mean) from single point screen (CB1 (rCB1) [4]; 10 µM, 1 µM or 300 nM by cell colour (not visible)): 80.28%
- rep1_displacement (CB1 (rCB1) [4]; Figure 1c source data, replicate 1): 80.6
- rep2_displacement (CB1 (rCB1) [4]; Figure 1c source data, replicate 2): 81.2
- rep3_displacement (CB1 (rCB1) [4]; Figure 1c source data, replicate 3): 79
